In paper PMC8878324, “Evaluation of New Antimicrobial Agents Based on tris(1H-Indol-3-yl)methylium Salts: Activity, Toxicity, Suppression of Experimental Sepsis in Mice” (Pharmaceuticals, 2022):
Read-outs that look alike come from different tables or passages of the source.

Columns and labels:
Format in all cases: cell-based
Gram-positive bacteria = test: MIC against Gram-positive bacteria
Method: (§1) We have tested the antimicrobial activity in vitro of over 100 tris(indolyl)methane derivatives against 16 strains of Gram-positive, Gram-negative bacteria and fungi including either sensitive or drug-resistant strains from ATCC, as well as resistant clinical isolates from the culture collection of the Laboratory for Control of Hospital Infections (Sechenov University, Moscow, Russia). The minimum inhibitory concentrations (MICs) were determined by the microdilution method in a cation-adjusted Müller–Hinton medium for bacteria and in a liquid culture medium RPMI 1640 with L-glutamine without sodium bicarbonate for fungi in accordance with the requirements of the Institute of Clinical and Laboratory Standards (CLSI/NCCLS). […] As a rule, their activity against Gram-negative bacteria was usually not that high. […] For comparison, the antimicrobial activity of prototype 4 is shown. The antibacterial antibiotic levofloxacin and the antifungal amphotericin B were used as reference drugs (Table 1).
The minimum inhibitory concentrations (MIC) for Gram-positive and Gram-negative bacteria were determined by two-fold serial microdilution method in a cation-adjusted Müller–Hinton medium for bacteria and in a liquid culture medium RPMI 1640 with L-glutamine without sodium bicarbonate for fungi in accordance with the requirements of the Institute of Clinical and Laboratory Standards (CLSI/NCCLS). The antibacterial antibiotic levofloxacin and the antifungal antibiotic amphotericin B from Sigma-Aldrich were used as reference drugs.

[1] = tested on: Candida albicans ATCC 14053; test: MIC by broth microdilution (RPMI 1640); details: ATCC14053
Method: as §1
(§2) The synthesis of compounds and the scheme of their preparation and purification, as well as physicochemical characteristics, were described earlier. To evaluate the biological activity in vitro, the compounds were dissolved in DMSO at a concentration of 2.0–6.4 mg/mL, followed by preparation of two-fold dilutions in the same solvent, if necessary. The solutions were further diluted in an aqueous medium for the final concentration of DMSO not to exceed 1%, and the concentration of the compounds ranged from 64.0 to 0.13 μg/mL. To study compounds in vivo, solutions for intravenous administration in 5% glucose solution were prepared. Solutions were sterilized by filtration through 0.22 µm filters (Millipore, Burlington, MA, USA).
(§3) Strains of Gram-positive, Gram-negative bacteria and fungi including sensitive or drug-resistant strains from ATCC, as well as resistant clinical isolates from the culture collection of the Laboratory for Control of Hospital Infections (Sechenov University, Moscow, Russia), were used. Clinical isolates of Gram-positive bacteria Staphylococcus aureus 5 (MRSA), Staphylococcus aureus 10, Staphylococcus aureus 100KC (MRSA), Staphylococcus epidermidis 533, Staphylococcus haemoliticus 585 and Enterococcus faecium 569, as well as collection cultures of Gram-positive bacteria Staphylococcus aureus ATCC 700699, Staphylococcus aureus ATCC 25923, Staphylococcus aureus ATCC 3798 and collection cultures of Gram-negative bacteria Escherichia coli ATCC 25922, Klebsiella pneumoniae ATCC 13883, Proteus vulgaris ATCC 13315, Salmonella cholerasuis ATCC 14028, Pseudomonas aeruginosa ATCC 27853 and collection cultures of the yeast Candida albicans ATCC 14053 and the fungi Aspergillus niger ATCC 16404 were used. To grow the microorganisms, we used Trypticase Soy Agar (TSA, Sigma-Aldrich Co., Burlington, MA, USA). Trypticase Soy Agar, BBL, was used for cultivation of Staphylococcus spp. and E. coli. For cultivation of Enterococcus spp. and P. aeruginosa we used a ready-made dry medium Columbia Agar Base, BBL. The media were sterilized by autoclaving at 121 °C for 15 min. Yeast culture C. albicans was grown on Sabouraud agar (peptone—10 g, glucose—40 g, agar—20 g, distilled water—1 L, pH 6.0), and filamentous fungi A. niger was grown on potato–glucose agar (potatoes—200 g, glucose—20 g, agar—15 g, distilled water—1 L, pH 5.5–6.0).
(§4) To determine the antibacterial effect, a liquid Müller–Hinton medium (Becton, Dickinson and Company, Cockeysville, MD, USA) was used; to determine the effect of compounds on fungi we used RPMI 1640 medium with L-glutamine, without sodium bicarbonate, which was prepared from a dry medium (ICN Biomedicals Inc., Costa Mesa, CA, USA) by dilution in distilled water, subsequent buffering with 0.165 M of morpholinepropanesulfonic acid (MOPS, Acros Organics B.V.B.A., Morris Plains, NJ, USA) and adjusting the pH of the medium to 7.0 by adding 1 N of NaOH solution. […]

[2] = tested on: Aspergillus niger ATCC 16404; test: MIC by broth microdilution (RPMI 1640); details: ATCC16404
Method: as §1, §2, §3, §4

Row | SMILES | MIC (Gram-positive bacteria; read-out: MIC) | MIC [1] | MIC [2] | MIC (Gram-positive bacteria)
1 | OCCCCCn1cc([C+](c2cn(CCCCCO)c3ccccc23)c2cn(CCCCCO)c3ccccc23)c2ccccc21.[Cl-] [Compound 1, tris(1-(5-Hydroxypentyl)-1H-indol-3-yl) methylium chloride] | 2 µg/mL | > 64 µg/mL | > 64 µg/mL | –
2 | CCCn1cc([C+](c2cn(CCC)c3ccccc23)c2cn(C3=C(N)C(=O)NC3=O)c3ccccc23)c2ccccc21.[Cl-] [Compound 2, (1-(4-Amino-2,5-dioxo-2,5-dihydro-1H-pyrrol-3-yl)-1H-indol-3-yl)bis(1-propyl-1H-indol-3-yl) methylium chloride] | – | 12 µg/mL | 8 µg/mL | –
3 | CCCn1cc([C+](c2cn(CCC)c3ccccc23)c2cn(C3=C(N(C)C)C(=O)NC3=O)c3ccccc23)c2ccccc21 [Compound 3, 1-(4-Dimethylamino-2,5-dioxo-2,5-dihydro-1H-pyrrol-3-yl) -1H-indol-3-yl) bis(1-propyl-1H-indol-3-yl) methylium chloride] | – | 2 µg/mL | 2 µg/mL | 0.13 µg/mL
